Like-named read-outs stand apart in the source and are kept apart here.
Assays:
Parameters in all cases: host or cells: CHO cells, stably transfected
M1 muscarinic receptor [1] = target: T1, M1 muscarinic receptor (Homo sapiens, UniProt P11229); test: [3H]NMS competition binding, M1 CHO membranes; conditions: competition with 1 nM [3H]NMS; read-out: Inhibition constants (Ki) as negative logarithms, M1 (converted)
T1 sequence (P11229 1-460): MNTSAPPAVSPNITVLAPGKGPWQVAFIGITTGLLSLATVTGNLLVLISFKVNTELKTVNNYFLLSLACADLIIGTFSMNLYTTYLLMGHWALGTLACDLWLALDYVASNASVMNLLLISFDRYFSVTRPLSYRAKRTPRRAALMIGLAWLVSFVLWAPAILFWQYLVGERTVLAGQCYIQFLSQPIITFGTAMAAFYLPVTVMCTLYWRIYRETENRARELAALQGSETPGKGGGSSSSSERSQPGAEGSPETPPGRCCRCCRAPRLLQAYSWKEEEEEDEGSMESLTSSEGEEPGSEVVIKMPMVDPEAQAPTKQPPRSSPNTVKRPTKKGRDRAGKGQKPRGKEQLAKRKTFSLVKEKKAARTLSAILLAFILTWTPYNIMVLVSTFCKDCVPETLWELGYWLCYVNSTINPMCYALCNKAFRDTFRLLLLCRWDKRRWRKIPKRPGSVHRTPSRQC

M4 muscarinic receptor [2] = target: T2, M4 muscarinic receptor (Homo sapiens, UniProt P08173); test: [3H]NMS competition binding, M4 CHO membranes
T2 sequence (P08173 1-479): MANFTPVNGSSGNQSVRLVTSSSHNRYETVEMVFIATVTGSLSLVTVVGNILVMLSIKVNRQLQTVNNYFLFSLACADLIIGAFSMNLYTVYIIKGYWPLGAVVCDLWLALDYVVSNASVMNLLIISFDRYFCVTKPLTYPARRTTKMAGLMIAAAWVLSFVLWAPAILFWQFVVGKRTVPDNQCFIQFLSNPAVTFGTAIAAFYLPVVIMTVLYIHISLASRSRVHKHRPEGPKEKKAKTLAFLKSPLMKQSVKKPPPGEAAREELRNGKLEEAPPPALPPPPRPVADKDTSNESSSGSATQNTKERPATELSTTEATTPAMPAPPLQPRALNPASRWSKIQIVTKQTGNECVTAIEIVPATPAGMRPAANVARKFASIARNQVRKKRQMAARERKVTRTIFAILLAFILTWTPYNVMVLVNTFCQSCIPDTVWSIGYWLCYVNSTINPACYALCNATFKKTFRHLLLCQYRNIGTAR

M5 muscarinic receptor = target: T3, M5 muscarinic receptor (Homo sapiens, UniProt P08912); test: [3H]NMS competition binding, M5 CHO membranes; conditions: competition with 1 nM [3H]NMS; read-out: Inhibition constants (Ki) as negative logarithms, M5 (converted)
T3 sequence (P08912 1-532): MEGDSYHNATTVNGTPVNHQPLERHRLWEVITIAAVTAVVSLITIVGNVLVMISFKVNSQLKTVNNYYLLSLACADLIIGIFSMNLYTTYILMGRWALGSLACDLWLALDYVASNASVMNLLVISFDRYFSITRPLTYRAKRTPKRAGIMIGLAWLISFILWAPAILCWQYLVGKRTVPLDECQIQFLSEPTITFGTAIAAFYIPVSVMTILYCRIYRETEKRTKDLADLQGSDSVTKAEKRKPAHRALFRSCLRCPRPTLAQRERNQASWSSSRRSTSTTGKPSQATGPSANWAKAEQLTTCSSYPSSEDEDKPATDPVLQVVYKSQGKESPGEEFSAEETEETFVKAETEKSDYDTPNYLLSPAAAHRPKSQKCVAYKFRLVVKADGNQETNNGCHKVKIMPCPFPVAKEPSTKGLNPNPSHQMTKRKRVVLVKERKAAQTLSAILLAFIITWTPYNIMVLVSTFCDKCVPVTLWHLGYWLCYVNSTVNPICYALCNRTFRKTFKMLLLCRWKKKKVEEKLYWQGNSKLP

M1 muscarinic receptor [3] = target: T1, M1 muscarinic receptor; test: accumulation of inositol phosphates IPX, M1 CHO cells (M1Gq); format: cell-based; conditions: for Kd: operational model, read-out: pKA (converted); for EC50: read-out: pEC50 (converted)
M3 muscarinic receptor = M3 muscarinic receptor (Homo sapiens, UniProt P20309); test: accumulation of IPX, M3 CHO cells (M3Gq); format: cell-based; conditions: for Kd: read-out: pKA (converted); for EC50: read-out: pEC50 (converted)
Sequence of M3 muscarinic receptor (P20309 whole entry): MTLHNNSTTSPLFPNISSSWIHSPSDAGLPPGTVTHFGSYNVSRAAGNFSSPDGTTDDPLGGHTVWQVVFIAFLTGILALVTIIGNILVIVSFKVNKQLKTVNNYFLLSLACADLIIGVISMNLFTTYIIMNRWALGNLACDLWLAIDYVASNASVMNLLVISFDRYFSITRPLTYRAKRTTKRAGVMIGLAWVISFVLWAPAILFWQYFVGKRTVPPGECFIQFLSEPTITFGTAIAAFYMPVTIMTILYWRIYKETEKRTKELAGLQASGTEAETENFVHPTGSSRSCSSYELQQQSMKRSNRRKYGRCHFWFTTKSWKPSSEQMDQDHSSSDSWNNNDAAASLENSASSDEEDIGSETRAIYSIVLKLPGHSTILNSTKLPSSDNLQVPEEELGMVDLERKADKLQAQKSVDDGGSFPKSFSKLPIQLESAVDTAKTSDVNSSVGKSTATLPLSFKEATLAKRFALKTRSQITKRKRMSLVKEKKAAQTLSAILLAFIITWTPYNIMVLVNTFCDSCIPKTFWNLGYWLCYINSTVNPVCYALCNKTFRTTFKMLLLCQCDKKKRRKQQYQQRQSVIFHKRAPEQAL

M4 muscarinic receptor [4] = target: T2, M4 muscarinic receptor; test: inhibition of forskolin-stimulated cAMP, M4 CHO cells (M4Gi); format: cell-based; conditions: for Emax: CHO, read-out: E′MAX; for Kd: read-out: pKA (converted); for EC50: read-out: pEC50 (converted)
[5] = M1 (↑IPX), preferential response, Table 7
[6] = M1 (↑IPX), preferential response, Table 7, operational efficacy
[7] = M1 (↑IPX), preferential response, relative to carbachol, Tables 2, 3, 7
[8] = M1 (↑IPX), preferential response, to carbachol, Tables 2, 3, 7
[9] = M1Gq (↑IPX), Table 8, relative to carbachol
[10] = M1Gq (↑IPX), Table 8, to carbachol
[11] = M3 (↑IPX), preferential response, Table 7
[12] = M3 (↑IPX), preferential response, Table 7, operational efficacy
[13] = M3 (↑IPX), preferential response, Table 7, operational model
[14] = M3 (↑IPX), preferential response, relative to carbachol, Tables 2, 3, 7
[15] = M3 (↑IPX), preferential response, to carbachol, Tables 2, 3, 7
[16] = M3Gq (↑IPX), Table 8, relative to carbachol
[17] = M3Gq (↑IPX), Table 8, to carbachol
[18] = M4 (↓cAMP), preferential response, Table 7
[19] = M4 (↓cAMP), preferential response, Table 7, operational efficacy
[20] = M4 (↓cAMP), preferential response, Table 7, operational model
[21] = M4 (↓cAMP), preferential response, relative to carbachol, Tables 2, 3, 7
[22] = M4 (↓cAMP), preferential response, to carbachol, Tables 2, 3, 7
[23] = M4Gi (↓cAMP), Table 8, relative to carbachol
[24] = M4Gi (↓cAMP), Table 8, to carbachol
[25] = competition with 1 nM [3H]NMS, read-out: Inhibition constants (Ki) as negative logarithms, M4 (converted)

Compound	Ki (M1 muscarinic receptor [1])	Ki (M5 muscarinic receptor)	E′MAX (M1 muscarinic receptor [3]; [5])	τ (M1 muscarinic receptor [3]; [6])	Kd (M1 muscarinic receptor [3]; [5])	EC50 (M1 muscarinic receptor [3]; [5])	RAi (M1 muscarinic receptor [3]; [7])	Δlog(τ/KA) (M1 muscarinic receptor [3]; [8])	E′MAX (M3 muscarinic receptor; [11])	τ (M3 muscarinic receptor; [12])	Kd (M3 muscarinic receptor; [13])	EC50 (M3 muscarinic receptor; [11])	RAi (M3 muscarinic receptor; [14])	Δlog(τ/KA) (M3 muscarinic receptor; [15])	Emax (M4 muscarinic receptor [4]; [18])	τ (M4 muscarinic receptor [4]; [19])	Kd (M4 muscarinic receptor [4]; [20])	EC50 (M4 muscarinic receptor [4]; [18])	RAi (M4 muscarinic receptor [4]; [21])	Δlog(τ/KA) (M4 muscarinic receptor [4]; [22])	further results
C1=CCN(Cc2cccs2)CC1.Cl [Compound 6A, 1-[(thiophen-2-yl)methyl]-1,2,3,6-tetrahydropyridin-1-ium chloride]	44.7 µM	50.1 µM	2.0 ± 0.2 fold over basal	0.03 ± 0.01	7.94 µM	7.94 µM	0.0010 ± 0.0001	2.98 ± 0.26	2.5 ± 0.2 fold over basal	0.06 ± 0.01	5.01 µM	5.01 µM	0.0058 ± 0.0005	2.23 ± 0.23	25 ± 2%	0.39 ± 0.04	6.31 µM	4.27 µM	0.0046 ± 0.0004	2.15 ± 0.16	Ki (M4 muscarinic receptor [2]; at M4 receptors, read-out: Inhibition constants Ki): 54 µM; E′MAX (M1 muscarinic receptor [3]; M1Gq (↑IPX), Table 8): 2.0 ± 0.2 fold increase; pEC50 (M1 muscarinic receptor [3]; M1Gq (↑IPX), Table 8): 5.1 ± 0.1; pKA (M1 muscarinic receptor [3]; M1Gq (↑IPX), Table 8): 5.1 ± 0.2; τ (M1 muscarinic receptor [3]; M1Gq (↑IPX), Table 8): 0.03 ± 0.01; RAi (M1 muscarinic receptor [3]; [9]): 0.0011 ± 0.0007; Δlog(τ/KA) (M1 muscarinic receptor [3]; [10]): 2.96 ± 0.86; E′MAX (M3 muscarinic receptor; M3Gq (↑IPX), Table 8): 2.4 ± 0.2 fold over basal; τ (M3 muscarinic receptor; M3Gq (↑IPX), Table 8): 0.05 ± 0.01; RAi (M3 muscarinic receptor; [16]): 0.0056 ± 0.0008; Δlog(τ/KA) (M3 muscarinic receptor; [17]): 2.26 ± 0.48; EC50 (M3 muscarinic receptor; M3Gq (↑IPX), Table 8): 5.01 µM; Kd (M3 muscarinic receptor; M3Gq (↑IPX), Table 8): 5.01 µM; E′MAX (M4 muscarinic receptor [4]; M4Gi (↓cAMP), Table 8): 25 ± 2 % inhibition; τ (M4 muscarinic receptor [4]; M4Gi (↓cAMP), Table 8): 0.39 ± 0.04; RAi (M4 muscarinic receptor [4]; [23]): 0.0046 ± 0.0004; Δlog(τ/KA) (M4 muscarinic receptor [4]; [24]): 2.15 ± 0.16; EC50 (M4 muscarinic receptor [4]; M4Gi (↓cAMP), Table 8): 8.51 µM; Kd (M4 muscarinic receptor [4]; M4Gi (↓cAMP), Table 8): 12.6 µM
Cc1ccc(C[N+]2(C)CC=CCC2)s1.[I-] (centres unmarked) [Compound 7B, 1-methyl-1-[(5-methylthiophen-2-yl)methyl]-1,2,3,6-tetrahydropyridin-1-ium iodide]	3.98 µM	3.39 µM	3.9 ± 0.4 fold over basal	0.09 ± 0.01	5.01 µM	5.01 µM	0.0058 ± 0.0007	2.24 ± 0.18	4.4 ± 0.4 fold over basal	0.14 ± 0.01	5.01 µM	8.32 µM	0.0077 ± 0.0008	2.11 ± 0.12	30 ± 1%	0.51 ± 0.05	3.98 µM	2.88 µM	0.0087 ± 0.0009	1.90 ± 0.18	Ki (M4 muscarinic receptor [2]; [25]): 4.37 µM; binding that occurred with high affinity (M4 muscarinic receptor [2]; fraction of binding to M4): ~10%; Ki (M4 muscarinic receptor [2]; high-affinity fraction of binding to M4, read-out: high affinity binding): ~0.03 µM
Brc1ccc(CN2CC=CCC2)s1.Cl [Compound 6C, 1-[(5-bromothiophen-2-yl)methyl]-1,2,3,6-tetrahydropyridin-1-ium chloride]	7.59 µM	12.9 µM	2.1 ± 0.2 fold over basal	0.03 ± 0.01	3.98 µM	3.47 µM	0.0024 ± 0.0002	2.62 ± 0.36	1.8 ± 0.1 fold over basal	0.03 ± 0.01	3.98 µM	5.01 µM	0.0029 ± 0.0004	2.53 ± 0.33	13 ± 1%	0.38 ± 0.04	2.51 µM	2.14 µM	0.0041 ± 0.005	2.13 ± 0.12	Ki (M4 muscarinic receptor [2]; [25]): 12.6 µM
C[N+]1(Cc2cccs2)CC=CCC1.[I-] (centres unmarked) [Compound 7A, 1-methyl-1-[(thiophen-2-yl)methyl]-1,2,3,6-tetrahydropyridin-1-ium iodide]	11.2 µM	10 µM	4.6 ± 0.4 fold over basal	0.12 ± 0.01	3.16 µM	2.63 µM	0.0111 ± 0.0002	1.96 ± 0.16	3.0 ± 0.3 fold over basal	0.08 ± 0.01	3.16 µM	3.16 µM	0.011 ± 0.001	1.94 ± 0.20	39 ± 2%	0.78 ± 0.08	3.16 µM	1.78 µM	0.0209 ± 0.0011	1.58 ± 0.22	Ki (M4 muscarinic receptor [2]; [25]): 7.94 µM; E′MAX (M1 muscarinic receptor [3]; M1Gq (↑IPX), Table 8): 4.6 ± 0.4 fold increase; pEC50 (M1 muscarinic receptor [3]; M1Gq (↑IPX), Table 8): 5.58 ± 0.03; pKA (M1 muscarinic receptor [3]; M1Gq (↑IPX), Table 8): 5.5 ± 0.1; τ (M1 muscarinic receptor [3]; M1Gq (↑IPX), Table 8): 0.12 ± 0.01; RAi (M1 muscarinic receptor [3]; [9]): 0.012 ± 0.006; Δlog(τ/KA) (M1 muscarinic receptor [3]; [10]): 1.93 ± 0.25; E′MAX (M3 muscarinic receptor; M3Gq (↑IPX), Table 8): 2.6 ± 0.3 fold over basal; τ (M3 muscarinic receptor; M3Gq (↑IPX), Table 8): 0.06 ± 0.01; RAi (M3 muscarinic receptor; [16]): 0.0084 ± 0.0011; Δlog(τ/KA) (M3 muscarinic receptor; [17]): 2.08 ± 0.34; EC50 (M3 muscarinic receptor; M3Gq (↑IPX), Table 8): 3.98 µM; Kd (M3 muscarinic receptor; M3Gq (↑IPX), Table 8): 3.98 µM; E′MAX (M4 muscarinic receptor [4]; M4Gi (↓cAMP), Table 8): 39 ± 2 % inhibition; τ (M4 muscarinic receptor [4]; M4Gi (↓cAMP), Table 8): 0.78 ± 0.08; RAi (M4 muscarinic receptor [4]; [23]): 0.0209 ± 0.0011; Δlog(τ/KA) (M4 muscarinic receptor [4]; [24]): 1.58 ± 0.22; EC50 (M4 muscarinic receptor [4]; M4Gi (↓cAMP), Table 8): 1.78 µM; Kd (M4 muscarinic receptor [4]; M4Gi (↓cAMP), Table 8): 3.16 µM

Source: patent US11591323B2, “Muscarinic agonists as non-steroidal and non-opioid analgesics and methods of use thereof” (Barry University, priority 2019, dated 2023)
